Where “and” joins values, the source holds several entries; their conditions need not be identical. Equal entries are not always repeated.

The target in assay [1] is Metabotropic glutamate receptor 2 (Homo sapiens, UniProt Q14416). Nature of the assay: Concentration for half maximal activation of metabotropic glutamate mGluR2 in human.
The target in assay [2] is Metabotropic glutamate receptor 2 (Rattus norvegicus, UniProt P31421). Nature of the assay: Concentration for half maximal activation of metabotropic glutamate mGluR2 in rat.
For assay [3], the target named is Metabotropic glutamate receptor 3 (Rattus norvegicus, UniProt P31422). Nature of the assay: Concentration for half maximal activation of metabotropic glutamate mGluR3 in rat.
In assay [4] the target is Metabotropic glutamate receptor 4 (Rattus norvegicus, UniProt P31423). The assay is described as follows: Concentration for half maximal activation of metabotropic glutamate mGluR4a in rat.
Assay [5] concerns the target T1, Metabotropic glutamate receptor 1 (Rattus norvegicus, UniProt P23385). Nature of the assay: Concentration for half maximal activation of metabotropic glutamate mGluR1a in rat.
For assay [6], the target named is Metabotropic glutamate receptor 4 (Homo sapiens, UniProt Q14833). Nature of the assay: Concentration for half maximal activation of metabotropic glutamate mGluR4a in human.
Assay [7] addresses T1, Metabotropic glutamate receptor 1. Nature of the assay: Concentration for half maximal activation of metabotropic glutamate mGluR1c in rat.
The target in assay [8] is Metabotropic glutamate receptor 8 (Mus musculus, UniProt P47743). The assay is described as follows: Concentration for half maximal activation of metabotropic glutamate mGluR8 in mouse. The class given is single protein.
Assay [9] has as its target Metabotropic glutamate receptor 7 (Rattus norvegicus, UniProt P35400). The assay is described as follows: Concentration for half maximal activation of metabotropic glutamate mGluR7 in rat.
Assay [10] concerns the target Metabotropic glutamate receptor 7 (Homo sapiens, UniProt Q14831). Nature of the assay: Concentration for half maximal activation of metabotropic glutamate mGluR7 in human.
Assay [11] deals with Metabotropic glutamate receptor 6 (Rattus norvegicus, UniProt P35349). The assay is described as follows: Concentration for half maximal activation of metabotropic glutamate mGluR6 in rat.
Assay [12] deals with T2, Metabotropic glutamate receptor 5 (Rattus norvegicus, UniProt P31424). The assay is described as follows: Concentration for half maximal activation of metabotropic glutamate mGluR5a in rat.
For assay [13], the target named is T1, Metabotropic glutamate receptor 1. Nature of the assay: Concentration for half maximal activation of metabotropic glutamate mGluR1b in rat.
Assay [14] addresses T2, Metabotropic glutamate receptor 5. Nature of the assay: Concentration for half maximal activation of metabotropic glutamate mGluR5b in rat.
Assay [15] has as its target Metabotropic glutamate receptor 5 (Homo sapiens, UniProt P41594). The assay is described as follows: Concentration for half maximal activation of metabotropic glutamate mGluR5a in human.

Metabotropic glutamate receptor 2 (Homo sapiens, UniProt Q14416), sequence (Q14416 whole entry): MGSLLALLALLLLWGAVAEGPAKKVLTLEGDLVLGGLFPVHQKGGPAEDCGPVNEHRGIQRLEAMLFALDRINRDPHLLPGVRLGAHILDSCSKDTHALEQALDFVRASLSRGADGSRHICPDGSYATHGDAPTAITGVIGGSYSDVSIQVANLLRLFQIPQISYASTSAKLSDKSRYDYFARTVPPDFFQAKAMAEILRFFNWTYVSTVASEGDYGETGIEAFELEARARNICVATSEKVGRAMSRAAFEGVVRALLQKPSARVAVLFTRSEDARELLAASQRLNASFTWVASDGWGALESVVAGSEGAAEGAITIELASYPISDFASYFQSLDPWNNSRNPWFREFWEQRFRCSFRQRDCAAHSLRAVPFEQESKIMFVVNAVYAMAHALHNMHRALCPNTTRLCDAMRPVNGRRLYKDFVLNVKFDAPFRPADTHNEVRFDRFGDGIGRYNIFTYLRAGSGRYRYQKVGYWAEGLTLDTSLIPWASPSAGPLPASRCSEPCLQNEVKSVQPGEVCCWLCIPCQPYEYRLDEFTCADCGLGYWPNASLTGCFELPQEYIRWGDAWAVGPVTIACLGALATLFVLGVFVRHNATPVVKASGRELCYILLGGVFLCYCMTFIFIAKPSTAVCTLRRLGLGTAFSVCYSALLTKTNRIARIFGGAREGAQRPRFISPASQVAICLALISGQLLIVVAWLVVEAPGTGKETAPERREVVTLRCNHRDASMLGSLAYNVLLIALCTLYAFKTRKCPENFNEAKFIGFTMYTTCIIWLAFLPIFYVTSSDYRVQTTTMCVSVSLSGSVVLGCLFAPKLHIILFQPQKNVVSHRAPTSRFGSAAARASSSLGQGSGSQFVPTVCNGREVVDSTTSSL
Metabotropic glutamate receptor 7 (Homo sapiens, UniProt Q14831), sequence (Q14831 whole entry): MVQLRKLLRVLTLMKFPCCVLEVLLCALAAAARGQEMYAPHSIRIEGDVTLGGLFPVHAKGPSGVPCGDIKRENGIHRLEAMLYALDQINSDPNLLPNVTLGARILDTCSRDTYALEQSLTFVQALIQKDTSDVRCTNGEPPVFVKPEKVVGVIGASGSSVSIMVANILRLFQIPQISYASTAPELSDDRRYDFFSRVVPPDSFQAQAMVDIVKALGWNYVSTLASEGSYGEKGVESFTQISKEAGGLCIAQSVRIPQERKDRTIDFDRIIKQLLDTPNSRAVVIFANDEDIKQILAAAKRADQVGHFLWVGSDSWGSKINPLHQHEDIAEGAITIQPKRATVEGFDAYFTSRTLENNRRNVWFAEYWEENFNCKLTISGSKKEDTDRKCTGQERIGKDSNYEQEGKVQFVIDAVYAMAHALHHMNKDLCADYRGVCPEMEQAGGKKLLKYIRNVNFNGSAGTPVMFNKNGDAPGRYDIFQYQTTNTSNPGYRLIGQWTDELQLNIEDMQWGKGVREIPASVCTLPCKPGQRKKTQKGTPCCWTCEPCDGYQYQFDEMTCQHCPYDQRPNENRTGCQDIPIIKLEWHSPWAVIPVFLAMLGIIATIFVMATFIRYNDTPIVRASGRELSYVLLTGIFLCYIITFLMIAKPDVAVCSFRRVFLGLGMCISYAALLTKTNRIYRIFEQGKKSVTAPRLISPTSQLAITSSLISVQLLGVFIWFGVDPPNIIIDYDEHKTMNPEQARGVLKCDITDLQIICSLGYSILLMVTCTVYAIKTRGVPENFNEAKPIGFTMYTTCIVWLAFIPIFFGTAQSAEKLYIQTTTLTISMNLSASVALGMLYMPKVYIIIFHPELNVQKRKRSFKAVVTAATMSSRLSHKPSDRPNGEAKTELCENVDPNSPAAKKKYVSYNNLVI
Metabotropic glutamate receptor 3, sequence (P31422 whole entry): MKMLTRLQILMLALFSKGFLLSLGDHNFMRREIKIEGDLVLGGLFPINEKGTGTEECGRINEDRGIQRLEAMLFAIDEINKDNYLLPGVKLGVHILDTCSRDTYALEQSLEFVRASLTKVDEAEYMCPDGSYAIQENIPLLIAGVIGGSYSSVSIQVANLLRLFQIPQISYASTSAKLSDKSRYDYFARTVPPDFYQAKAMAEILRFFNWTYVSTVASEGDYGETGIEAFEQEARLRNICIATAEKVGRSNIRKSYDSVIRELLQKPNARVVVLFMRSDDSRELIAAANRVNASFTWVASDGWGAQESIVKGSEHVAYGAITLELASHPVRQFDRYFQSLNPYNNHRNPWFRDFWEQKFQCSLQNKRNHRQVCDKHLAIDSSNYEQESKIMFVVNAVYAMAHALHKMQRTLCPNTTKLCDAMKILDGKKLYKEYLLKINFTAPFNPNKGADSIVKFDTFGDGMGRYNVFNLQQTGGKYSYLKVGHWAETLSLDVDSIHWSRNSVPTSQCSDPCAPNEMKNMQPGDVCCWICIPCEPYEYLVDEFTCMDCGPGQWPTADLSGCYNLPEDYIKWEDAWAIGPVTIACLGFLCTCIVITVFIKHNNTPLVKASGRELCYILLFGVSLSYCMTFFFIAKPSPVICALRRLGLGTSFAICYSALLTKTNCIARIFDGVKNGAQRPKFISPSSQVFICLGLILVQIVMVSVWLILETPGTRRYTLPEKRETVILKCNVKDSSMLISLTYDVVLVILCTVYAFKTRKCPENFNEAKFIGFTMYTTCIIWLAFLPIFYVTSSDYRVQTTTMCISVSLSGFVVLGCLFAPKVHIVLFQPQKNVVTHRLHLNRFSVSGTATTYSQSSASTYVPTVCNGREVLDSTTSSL
Metabotropic glutamate receptor 6, sequence (P35349 whole entry): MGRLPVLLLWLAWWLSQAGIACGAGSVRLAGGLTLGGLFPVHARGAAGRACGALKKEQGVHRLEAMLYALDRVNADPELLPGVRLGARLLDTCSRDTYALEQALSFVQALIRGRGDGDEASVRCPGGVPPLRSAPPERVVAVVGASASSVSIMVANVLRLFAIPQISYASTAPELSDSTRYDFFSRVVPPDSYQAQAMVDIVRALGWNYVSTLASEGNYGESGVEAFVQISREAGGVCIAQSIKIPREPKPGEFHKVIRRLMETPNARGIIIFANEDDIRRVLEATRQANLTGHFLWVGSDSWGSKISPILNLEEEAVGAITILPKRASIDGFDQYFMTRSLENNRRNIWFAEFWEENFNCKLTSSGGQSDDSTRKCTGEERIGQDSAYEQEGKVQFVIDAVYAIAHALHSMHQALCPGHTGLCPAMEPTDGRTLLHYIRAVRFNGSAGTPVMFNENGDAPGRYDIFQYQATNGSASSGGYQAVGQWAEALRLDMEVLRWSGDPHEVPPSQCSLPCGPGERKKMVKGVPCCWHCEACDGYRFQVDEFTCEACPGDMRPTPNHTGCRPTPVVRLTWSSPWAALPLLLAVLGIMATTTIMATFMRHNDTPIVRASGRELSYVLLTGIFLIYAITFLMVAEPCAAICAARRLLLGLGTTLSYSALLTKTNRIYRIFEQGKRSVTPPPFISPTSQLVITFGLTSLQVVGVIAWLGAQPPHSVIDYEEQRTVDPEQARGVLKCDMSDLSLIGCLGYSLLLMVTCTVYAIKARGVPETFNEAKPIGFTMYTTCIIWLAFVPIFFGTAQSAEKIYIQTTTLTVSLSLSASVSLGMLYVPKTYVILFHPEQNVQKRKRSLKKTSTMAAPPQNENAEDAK
Metabotropic glutamate receptor 7 (Rattus norvegicus, UniProt P35400), sequence (P35400 whole entry): as the sequence (Q14831 whole entry) above, with R5G, A27V, N454H, S488T, A520S, D578N counted along it
T2 sequence (P31424 whole entry): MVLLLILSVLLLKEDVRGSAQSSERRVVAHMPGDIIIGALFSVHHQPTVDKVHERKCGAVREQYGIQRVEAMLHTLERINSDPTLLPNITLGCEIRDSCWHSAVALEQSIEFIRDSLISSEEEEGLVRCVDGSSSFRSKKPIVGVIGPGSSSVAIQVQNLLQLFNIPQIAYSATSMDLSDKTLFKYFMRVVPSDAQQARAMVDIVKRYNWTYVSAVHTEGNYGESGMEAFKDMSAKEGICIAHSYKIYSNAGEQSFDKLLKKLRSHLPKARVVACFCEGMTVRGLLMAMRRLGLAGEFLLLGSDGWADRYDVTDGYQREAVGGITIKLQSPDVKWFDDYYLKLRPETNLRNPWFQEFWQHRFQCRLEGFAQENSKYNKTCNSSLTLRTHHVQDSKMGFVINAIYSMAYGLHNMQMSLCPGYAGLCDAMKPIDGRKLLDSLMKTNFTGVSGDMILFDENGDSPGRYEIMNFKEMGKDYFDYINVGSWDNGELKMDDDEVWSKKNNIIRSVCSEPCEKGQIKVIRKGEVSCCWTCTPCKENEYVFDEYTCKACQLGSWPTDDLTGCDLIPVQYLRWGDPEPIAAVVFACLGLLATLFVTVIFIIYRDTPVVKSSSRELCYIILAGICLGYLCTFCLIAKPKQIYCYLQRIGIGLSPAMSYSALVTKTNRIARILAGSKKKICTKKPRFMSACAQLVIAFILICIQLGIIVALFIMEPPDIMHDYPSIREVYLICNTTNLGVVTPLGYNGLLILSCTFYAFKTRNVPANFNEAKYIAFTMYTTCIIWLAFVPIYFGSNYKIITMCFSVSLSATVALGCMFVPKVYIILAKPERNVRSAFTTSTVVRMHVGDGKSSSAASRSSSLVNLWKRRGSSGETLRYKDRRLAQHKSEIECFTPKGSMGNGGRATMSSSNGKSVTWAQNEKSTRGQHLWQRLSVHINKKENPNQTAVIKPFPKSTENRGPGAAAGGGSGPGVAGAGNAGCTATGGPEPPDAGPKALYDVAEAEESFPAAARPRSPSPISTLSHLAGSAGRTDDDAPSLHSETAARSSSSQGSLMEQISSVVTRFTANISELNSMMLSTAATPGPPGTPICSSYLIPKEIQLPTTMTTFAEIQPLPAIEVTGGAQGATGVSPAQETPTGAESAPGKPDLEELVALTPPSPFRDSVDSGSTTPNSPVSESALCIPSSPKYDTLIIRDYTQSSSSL

For `N[C@H](C(=O)O)[C@H]1C[C@@H]1C(=O)O`, the EC50 in assay [1] is 0.38 µM; in [2], 0.75 µM.

In the case of `N[C@H](C(=O)O)C1[C@@H](C(=O)O)[C@@H]1C(=O)O` (stereo partly specified), the EC50 in assay [3] is 0.3 µM; in assay [4], more than 1000 µM; in assay [5], more than 1000 µM; in assay [2], 0.3 µM.

Regarding `N[C@@H](CCP(=O)(O)O)C(=O)O`, the concentration giving a half-maximal response (EC50) in [6] is 0.2 µM; in assay [7], more than 1000 µM; in assay [8] it was 0.4 µM; in assay [9], 160 µM and 500 µM; in assay [1] it was more than 1000 µM; in assay [4] it was 0.5 µM and 1.2 µM. For the same molecule, the EC50 was more than 1000 µM in assay [2], 200 µM in assay [10] and 0.9 µM in assay [11].

`N[C@@]1(C(=O)O)CC[C@@H](C(=O)O)C1`: the half-maximal effective concentration (EC50) was 8 µM in assay [3]; more than 100 µM in [8]; more than 1000 µM in [9]; 50 µM in assay [12]; 12.1 µM in [1]; > 100 µM and 39 µM in assay [4]. Moreover, the EC50 in assay [2] is 5 µM and 7.7 µM; in [10], more than 1000 µM; in assay [11], more than 200 µM.

On to `N[C@@H](COP(=O)(O)O)C(=O)O` [DEXFOSFOSERINE], for which the concentration giving a half-maximal response (EC50) in assay [6] is 1.3 µM; in assay [9], 160 µM; in assay [4], 4 µM; in assay [10] it was less than 200 µM; in assay [11] it was 2.7 µM.

Turning to `N[C@@H](CCC(=O)O)C(=O)O` [GLUTAMIC ACID], the EC50 in assay [3] is 3 µM; in [8], 0.022 µM; in assay [9] it was 1000 µM and 1300 µM; in assay [4], 5 µM and 3.2 µM; in assay [10] it was more than 500 µM; in assay [11], 16 µM.

`N[C@H](C(=O)O)c1cc(=O)[nH]o1` [IBOTENIC ACID]: the EC50 is 10 µM in [3]; 60 µM in [7]; more than 100 µM in [8]; 10 µM and 8 µM in assay [12]; 590 µM in assay [4]; 44 µM in assay [13]. The figures for the EC50 in [5], in assay [14] and in assay [11] were 6 µM, 8 µM and 1000 µM, respectively.

For the molecule `N[C@@H](Cn1oc(=O)[nH]c1=O)C(=O)O` [QUISQUALATE], the EC50 is 40 µM in assay [3]; more than 500 µM in assay [6]; more than 100 µM in [8]; more than 1000 µM in assay [9]; 0.3 µM and 0.2 µM in assay [12]; more than 1000 µM in [1]. For the same molecule, the EC50 in [4] was > 100 µM and 129 µM; in assay [15], 0.15 µM; in [2], more than 1000 µM; in [10] it was more than 1000 µM; in assay [14] it was 0.2 µM; in [11] it was 1000 µM.

What is called EC50 is the concentration needed to bring the measured effect to its halfway point. Read a high EC50 as a less potent agent.

For the origin of these results see ChEMBL document CHEMBL1128305, “Metabotropic glutamate receptors: novel targets for drug development” (J Med Chem, 1995).
